Measurements published in the supplement of paper PMC11208160.

Test: recombinant barcode read abundance after kanamycin selection (control-corrected) (log10(CPM+1)); higher = more efficient recombination; sequences stand for … in AGTGCAGAGAAAATCGGCCAGTTTTCTCTGCCTGCAGTCCGCATGCCGT…AGATTTATGCAGCGGACTGCCTTTCTCCCAAAGTGATAAACCGGACAGTATCATGGACCGGTTTTCCCGGTAATCCGTATTTGCAAGGTTGGTTTCACT; site = the 11-nt target
How it was run: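 A vector carrying a T7-inducible recombinase and the last 73 bp of the bridge RNA received, by Gibson cloning, oligos encoding a promoter, target, barcode and the first 104 bridge RNA bases under J23119. The pooled constructs entered E. coli together with a donor plasmid by electroporation. Selection used chloramphenicol/ampicillin/kanamycin with 0.1 mM IPTG, with chloramphenicol/ampicillin LB agar as the control, each in two replicates. Recombination efficiency is the averaged, control-corrected counts-per-million of barcodes at recombinant junctions, reported as log10(CPM+1).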
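Further: IS621 recombinase and bridge RNA in Escherichia coli cells.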

In order of falling “recombinant barcode read abundance (log10)” value:
1. GCACCCTCTTGGGTTCTAACCTGTTGCCT (site GCACCCTCTAG)  2.67
2. GCACTAGCTTGGGTTCTAACCTGTTGCGT (site GCACTAGCTAC)  2.54
3. GCAAGGTCTTGGGTTCTAACCTGTTGCAT (site GCAAGGTCTAT)  2.5
4. GCACACACTTGGGTTCTAACCTGTTGCTG (site GCACACACTCA)  2.5
5. GCAAGTCCTTGGGTTCTAACCTGTTGCGT (site GCAAGTCCTAC)  2.47
6. GCACACTCTTGGGTTCTAACCTGTTGCCT (site GCACACTCTAG)  2.43
7. GCAGCCTCTTGGGTTCTAACCTGTTGCGT (site GCAGCCTCTAC)  2.08
8. GCCCATGCTTGGGTTCTAACCTGTTGCGG (site GCCCATGCTCC)  2.05
9. GCAAGGTCTTGGGTTCTAACCTGTTGCTA (site GCAAGGTCTTA)  1.98
10. GCACAACCTTGGGTTCTAACCTGTTGCCT (site GCACAACCTAG)  1.89
11. GCATGTCCTTGGGTTCTAACCTGTTGCAT (site GCATGTCCTAT)  1.37
12. GCAAGTTCTTGGGTTCTAACCTGTTGCCT (site GCAAGTTCTAG)  1.33
13. GCAATATCTTGGGTTCTAACCTGTTGCCT (site GCAATATCTAG)  1.26
14. GCAAGGGCTTGGGTTCTAACCTGTTGCCG (site GCAAGGGCTCG)  1.24
15. GCACATTCTTGGGTTCTAACCTGTTGCCT (site GCACATTCTAG)  1.17
16. GCAGCTACTTGGGTTCTAACCTGTTGCTG (site GCAGCTACTCA)  0.694
17. GCCGAGTCTTGGGTTCTAACCTGTTGCTT (site GCCGAGTCTAA)  0.688
18. GCACGTGCTTGGGTTCTAACCTGTTGCCT (site GCACGTGCTAG)  0.624
19. GCCGAGTCTTGGGTTCTAACCTGTTGCTT (site GCCGAGTCTTA)  0.6
20. GCATCCTCTTGGGTTCTAACCTGTTGCCA (site GCATCCTCTTG)  0.584
21. GCCGACCCTTGGGTTCTAACCTGTTGCCG (site GCCGACCCTCG)  0.492
22. GCCTACCCTTGGGTTCTAACCTGTTGCGG (site GCCTACCCTCC)  0.483
23. GCCGAGACTTGGGTTCTAACCTGTTGCCT (site GCCGAAACTAG)  0.48
24. GCCAAACCTTGGGTTCTAACCTGTTGCCT (site GCCAGACCTAG)  0.458
25. GCCTATTCTTGGGTTCTAACCTGTTGCGT (site GCCTATTCTAC)  0.4
26. GCAAGCTCTTGGGTTCTAACCTGTTGCTA (site GCAAGGTCTTA)  0.36
27. GCCATTCCTTGGGTTCTAACCTGTTGCAT (site GCCATTCCTAT)  0.347
28. GCCGAGACTTGGGTTCTAACCTGTTGCCT (site GCCGAGACTAG)  0.34
29. GCAAGGGCTTGGGTTCTAACCTGTTGCCG (site GCTAGGGCTCT)  0.303
30. GCCACTCCTTGGGTTCTAACCTGTTGCGT (site GCCACTCCTAC)  0.297
31. GCCATTACTTGGGTTCTAACCTGTTGCCT (site GCCATGACTAG)  0.297
32. GCCAACCCTTGGGTTCTAACCTGTTGCGT (site GCCAACCCTAC)  0.276
33. GCCGCGACTTGGGTTCTAACCTGTTGCCT (site GCTGCGACTAG)  0.262
34. GCACACTCTTGGGTTCTAACCTGTTGCCT (site GCACTCTCTAG)  0.261
35. GCCTGTTCTTGGGTTCTAACCTGTTGCCT (site GACTGTTCTAG)  0.238
36. GCCGCGACTTGGGTTCTAACCTGTTGCCT (site GCCGCGACTAG)  0.236
37. GCAAGTTCTTGGGTTCTAACCTGTTGCCT (site GTAAGTTCTAG)  0.229
38. GCACAACCTTGGGTTCTAACCTGTTGCCT (site GCACGACCTAG)  0.214
39. GCCAACCCTTGGGTTCTAACCTGTTGCGT (site GCCAACCCTAA)  0.212
40. GCCGCGACTTGGGTTCTAACCTGTTGCCT (site GCAGCGACTAG)  0.207
41. GCCGCGACTTGGGTTCTAACCTGTTGCCT (site GCGGCGACTAG)  0.204
42. GCCACTCCTTGGGTTCTAACCTGTTGCGT (site GTCAATCCTAC)  0.185
43. GCCAAACCTTGGGTTCTAACCTGTTGCCT (site GCCATACCTAG)  0.184
44. GCAAGGTCTTGGGTTCTAACCTGTTGCAT (site CGTTCTCCTTA)  0.18
45. GCAAGTTCTTGGGTTCTAACCTGTTGCCT (site GGAAGTTCTAG)  0.172
46. GCACTAGCTTGGGTTCTAACCTGTTGCGT (site GCACTAACTAG)  0.17
47. GCCAACCCTTGGGTTCTAACCTGTTGCGT (site GCCAACCCTAT)  0.162
48. GCCAACCCTTGGGTTCTAACCTGTTGCGT (site GCCAACCCTAG)  0.149
49. GCATCCTCTTGGGTTCTAACCTGTTGCCA (site AGGAGTACTAA)  0.146
50. GCCCATGCTTGGGTTCTAACCTGTTGCGG (site CATTTCACTAG)  0.144
51. GCACGTGCTTGGGTTCTAACCTGTTGCCT (site GCCCGTGCTAG)  0.141
52. GCCGATACTTGGGTTCTAACCTGTTGCCA (site AGTCTGCCTCA)  0.134
53. GCAAGGTCTTGGGTTCTAACCTGTTGCTA (site GCAAGCTCTTA)  0.133
54. GCACACTCTTGGGTTCTAACCTGTTGCCT (site GCACCCTCTAG)  0.128
55. GCATGTCCTTGGGTTCTAACCTGTTGCAT (site GAATGTCCTAT)  0.128
56. GCCGAGACTTGGGTTCTAACCTGTTGCCT (site GCCGATACTAG)  0.121
57. GCAAGTTCTTGGGTTCTAACCTGTTGCCT (site GAAAGTTCTAG)  0.113
58. GCCTACCCTTGGGTTCTAACCTGTTGCGG (site GCCGACCCTCG)  0.0988
59. GCCATTACTTGGGTTCTAACCTGTTGCCT (site GCCATTACTAG)  0.0923
60. GCCAAACCTTGGGTTCTAACCTGTTGCCT (site GCCACACCTAG)  0.0741
61. GCACCCTCTTGGGTTCTAACCTGTTGCCT (site GCACGCTCTAG)  0.0715
62. GCCGAGTCTTGGGTTCTAACCTGTTGCTT (site GCCGAGTCTCA)  0.0689
63. GCACCCTCTTGGGTTCTAACCTGTTGCCT (site GCACACTCTAG)  0.0655
64. GCAAGTCCTTGGGTTCTAACCTGTTGCGT (site CATGCCTCTCG)  0.0651
65. GCCTATTCTTGGGTTCTAACCTGTTGCGT (site TCCGATTCTAC)  0.0523
66. GCCGACCCTTGGGTTCTAACCTGTTGCCG (site GCCTACCCTCC)  0.0507
67. GCCAAACCTTGGGTTCTAACCTGTTGCCT (site GCCAAACCTAG)  0.0479
68. GCCATTACTTGGGTTCTAACCTGTTGCCT (site GCCATAACTAG)  0.0468
69. GCCATTCCTTGGGTTCTAACCTGTTGCAT (site AGAGCCACTTA)  0.0467
70. GCACGTGCTTGGGTTCTAACCTGTTGCCT (site GCTCGTGCTAG)  0.0446
71. GCCGAGTCTTGGGTTCTAACCTGTTGCTT (site GCCGAGTCTGA)  0.0417
72. GCCATTACTTGGGTTCTAACCTGTTGCCT (site GCCATCACTAG)  0.0409
73. GCCGATTCTTGGGTTCTAACCTGTTGCCT (site GCCGATTCTAG)  0.0394
74. GCAGCTACTTGGGTTCTAACCTGTTGCTG (site ACAGCTACTAA)  0.0295
75. GCACGTGCTTGGGTTCTAACCTGTTGCCT (site GCGCGTGCTAG)  0.0268
76. GCACAACCTTGGGTTCTAACCTGTTGCCT (site GCACCACCTAG)  0.0258
77. GCACATTCTTGGGTTCTAACCTGTTGCCT (site GCACATACTAG)  0.0258
78. GCACCCTCTTGGGTTCTAACCTGTTGCCT (site GCACTCTCTAG)  0.0191
79. GCCGATTCTTGGGTTCTAACCTGTTGCCT (site ACCGATTCTAT)  0.0154
80. GCCGAGACTTGGGTTCTAACCTGTTGCCT (site GCCGACACTAG)  0.0133
81. GCAATATCTTGGGTTCTAACCTGTTGCCT (site AAGTCTCCTCT)  0.0108
82. GCACAACCTTGGGTTCTAACCTGTTGCCT (site GCACTACCTAG)  0.0085
83. GCAGCCTCTTGGGTTCTAACCTGTTGCGT (site ATGTGAACTCA)  0.00651
84. GCACACACTTGGGTTCTAACCTGTTGCTG (site GAACACACTCG)  0
85. GCACACTCTTGGGTTCTAACCTGTTGCCT (site GCACGCTCTAG)  0
86. GCCGATACTTGGGTTCTAACCTGTTGCCA (site GCCGATACTTG)  0
